Legend:
U251 = assay: NCI-60 Human Tumor Cell Line Growth Inhibition Screen; type: cell-based; settings: U-251, U251, CNS Cancer, 48 hours, SRB
Protocol: (§1) Various human tumor cell lines representing the NCI-60 cancer screening panel were grown in RPMI 1640 medium containing 5% fetal bovine serum and 2 mM L-glutamine. For a typical screening experiment, cells were inoculated into 96 well microtiter plates in 100 μL at plating densities ranging from 5,000 to 40,000 cells/well depending on the doubling time of individual cell lines. After cell inoculation, the microtiter plates were incubated at 37° C., 5% CO2, 95% air and 100% relative humidity for 24 hours prior to addition of the test compound. After 24 hours, two plates of each cell line were fixed in situ with TCA, to represent a measurement of the cell population for each cell line at the time of test compound addition (Tz). Experimental test compounds were solubilized in 100% (v/v) DMSO at 400-fold the desired final maximum test concentration and stored frozen prior to use. At the time of test compound addition, an aliquot of frozen concentrate was thawed and diluted to twice the desired final maximum test concentration with complete medium containing 50 μg/ml gentamicin. Additional four, 10-fold or ½ log serial dilutions were made to provide a total of five test compound concentrations plus control. Aliquots of 100 μl of these different test compound dilutions were added to the appropriate microtiter wells already containing 100 μl of medium, resulting in the required final test compound concentrations.
(§2) Following test compound addition, the plates were incubated for an additional 48 hours at 37° C., 5% CO2, 95% air, and 100% relative humidity. For adherent cells, the assay was terminated by the addition of cold TCA. Cells were fixed in situ by the gentle addition of 50 μl of cold 50% (w/v) TCA and incubated for 60 minutes at 4° C. The supernatant was discarded, and the plates were washed five times with tap water and air dried. Sulforhodamine B (SRB) solution (100 μl) at 0.4% (w/v) in 1% acetic acid was added to each well, and plates were incubated for 10 minutes at room temperature. After staining, unbound dye was removed by washing five times with 1% acetic acid and the plates were air dried. Bound stain was subsequently solubilized with 10 mM trizma base, and the absorbance was read on an automated plate reader at a wavelength of 515 nm. For suspension cells, the methodology was the same except that the assay was terminated by fixing settled cells at the bottom of the wells by gently adding 50 μl of 80% TCA. Using the seven absorbance measurements [time zero, (Tz), control growth, (C), and test growth in the presence of test compound at the five concentration levels (Ti)], the percentage growth was calculated at each of the test compound concentrations levels. Percentage growth inhibition was calculated as: [(Ti−Tz)/(C−Tz)]×100 for concentrations for which Ti≧Tz or [(Ti−Tz)/Tz]×100 for concentrations for which Ti<Tz. Growth inhibition of 50% (GI50) was calculated from [(Ti−Tz)/(C−Tz)]×100=50, which is the test compound concentration resulting in a 50% reduction in the net protein increase (as measured by SRB staining) in control cells during the test compound incubation.

HT29 = assay: as above; type: cell-based; settings: HT-29, HT29, Colon Cancer, 48 hours, SRB
Protocol: as §1, §2

OVCAR-3 = assay: as above; type: cell-based; settings: OVCAR-3, Ovarian Cancer, 48 hours, SRB
Protocol: as §1, §2

PC-3 = assay: as above; type: cell-based; settings: PC-3, Prostate Cancer, 48 hours, SRB
Protocol: as §1, §2

A549/ATCC = assay: as above; type: cell-based; settings: Non-Small Cell Lung Cancer, 48 hours, SRB
Protocol: as §1, §2

HL-60(TB) = assay: as above; type: cell-based; settings: Leukemia, 48 hours, SRB
Protocol: as §1, §2

LOX IMVI = assay: as above; type: cell-based; settings: Melanoma, 48 hours, SRB
Protocol: as §1, §2

MCF7 = assay: as above; type: cell-based; settings: MCF7, Breast Cancer, 48 hours, SRB
Protocol: as §1, §2

CAKI-1 = assay: as above; type: cell-based; settings: CAKI-1, Renal Cancer, 48 hours, SRB
Protocol: as §1, §2

[1] = HCT-116 Cellular Cytotoxicity Assay; settings: human, HCT-116 cells, pH 7.2
Protocol: (§3) The purpose of this assay is to determine if any of the synthesized compounds are cytotoxic against HCT-116 cells, as measured by resazurin metabolism. Resazurin is metabolized only by living cells from a non-fluorescent molecule into Resorufin, a highly red fluorescent dye. […] The cells were cultured in an incubator at 37° C. in 5% CO2 and 95% humidified air. […] The final concentration DMSO was 0.5% (v/v) in all samples. The plates were returned to the incubator for 72 hours. Following 72 hours of test compound exposure, 10 μL of 0.2 mg/mL Resazurin (Sigma) in phosphate buffered saline was added to each well and the plate was returned to the incubator for 3-6 hours. Since living cells metabolize Resazurin, the fluorescence of the reduction product of Resazurin was measured using a microplate fluorometer with λex=531 nm and λem=590 nm filters. Resazurin dye in medium without cells was used to determine the background, which was subtracted from the data for all experimental wells.

USP7 = biological target: T1, USP7 (Homo sapiens, UniProt Q93009); assay: USP7, Ub-PLA2 assay; type: biochemical; settings: Ub-PLA2 / NBD C6-HPC fluorescence, 30 minute preincubation; read-out: EC50 for inhibition of USP7
T1 construct: full length human USP7 protein; made in house
T1 sequence (Q93009 whole entry): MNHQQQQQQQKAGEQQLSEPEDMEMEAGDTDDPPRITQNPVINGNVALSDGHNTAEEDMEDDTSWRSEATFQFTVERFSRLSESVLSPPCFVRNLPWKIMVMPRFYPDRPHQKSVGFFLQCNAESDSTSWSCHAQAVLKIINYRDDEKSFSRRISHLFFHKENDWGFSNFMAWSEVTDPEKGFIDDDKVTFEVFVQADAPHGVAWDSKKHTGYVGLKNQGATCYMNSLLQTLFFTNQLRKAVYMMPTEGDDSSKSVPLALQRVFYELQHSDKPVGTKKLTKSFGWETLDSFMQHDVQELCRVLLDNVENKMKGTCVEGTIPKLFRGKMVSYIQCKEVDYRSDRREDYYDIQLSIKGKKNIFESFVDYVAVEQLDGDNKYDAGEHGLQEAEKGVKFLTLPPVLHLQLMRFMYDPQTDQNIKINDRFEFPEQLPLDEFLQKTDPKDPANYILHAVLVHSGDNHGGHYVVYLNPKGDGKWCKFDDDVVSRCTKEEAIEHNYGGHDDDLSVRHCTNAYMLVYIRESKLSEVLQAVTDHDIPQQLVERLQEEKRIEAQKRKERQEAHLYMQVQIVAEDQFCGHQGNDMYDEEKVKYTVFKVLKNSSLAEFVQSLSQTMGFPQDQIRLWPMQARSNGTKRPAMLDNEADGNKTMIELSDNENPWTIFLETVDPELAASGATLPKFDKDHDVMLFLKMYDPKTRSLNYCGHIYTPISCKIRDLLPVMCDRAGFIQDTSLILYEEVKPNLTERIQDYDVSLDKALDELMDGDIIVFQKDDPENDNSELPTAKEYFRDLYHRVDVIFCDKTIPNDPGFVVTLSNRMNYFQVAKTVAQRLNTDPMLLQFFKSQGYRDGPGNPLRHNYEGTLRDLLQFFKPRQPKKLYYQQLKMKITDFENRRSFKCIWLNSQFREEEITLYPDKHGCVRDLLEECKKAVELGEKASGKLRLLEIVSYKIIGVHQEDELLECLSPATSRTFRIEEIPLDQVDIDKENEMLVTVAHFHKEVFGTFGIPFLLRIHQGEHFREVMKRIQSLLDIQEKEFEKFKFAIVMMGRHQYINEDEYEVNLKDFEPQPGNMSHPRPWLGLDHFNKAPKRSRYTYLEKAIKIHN
Procedure, shortened: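 Compounds tested against USP7 with DMSO vehicle control and NEM-treated wells as background. Fluorescence (RFU) read-out; % inhibition normalized per plate to mean DMSO and NEM controls.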

HCT-116 cells [2] = assay: HCT-116 Combination Cytotoxicity Assay; type: cell-based, human; settings: constant ratio, 72 hours
[3] = system: human multiple myeloma tumor cells; assay: In vivo Efficacy of P5091; settings: SCID mice, 10 mg/kg intravenously twice a week for three weeks
Protocol: Severe combined immunodeficient mice inoculated subcutaneously with human multiple myeloma tumor cells were treated intravenously twice a week for three weeks with 10 mg/kg P5091. […] See D. Chauhan et al., Abstract No. 610 (Deubiquitylating Enzyme USP-7, a Novel Therapeutic Target in Multiple Myeloma), 51st ASH Annual Meeting and Exposition, New Orelans, La., December 2009.

HCT-116 cells [4] = system: HCT-116 cells
Protocol: as §3

Which GI50 (U251) does the source give for `CC(=O)c1cc([N+](=O)[O-])c(Sc2ccc(F)cc2F)s1` [Example 3, 1-[5-(2,4-Difluorophenylsulfanyl)-4-nitro-2-thienyl]ethanone] here?
The GI50 was 4.79 µM.

And the GI50 (HT29)?
The GI50 was 3.8 µM.

And the GI50 (OVCAR-3)?
The GI50 was 2.04 µM.

And the GI50 (PC-3)?
The GI50 was 12 µM.

What about the GI50 (A549/ATCC) of the same compound?
The GI50 was 15.5 µM.

What about the GI50 (HL-60(TB)) of the same compound?
The GI50 was 2.75 µM.

And the GI50 (LOX IMVI)?
The GI50 was 1.51 µM.

And the GI50 (MCF7)?
The GI50 was 2.57 µM.

And the GI50 (CAKI-1)?
Its GI50 is 1.82 µM.

Which results are given for `CC(=O)c1cc([N+](=O)[O-])c(Sc2c(Cl)cncc2Cl)s1` [Example 17, 1-[5-[(3,5-dichloro-4-pyridyl)sulfanyl]-4-nitro-2-thienyl]ethanone]?
GI50 (U251): 1.95 µM; GI50 (HT29): 1.86 µM; GI50 (OVCAR-3): 1.41 µM; GI50 (PC-3): 2.75 µM; GI50 (A549/ATCC): 3.09 µM; GI50 (HL-60(TB)): 1.91 µM; GI50 (LOX IMVI): 1.51 µM; GI50 (MCF7): 1.91 µM; GI50 (CAKI-1): 1.86 µM; EC50 at 72 h [1]: 8.66 µM; EC50 (USP7): 1 to 10 µM

For `CS(=O)(=O)c1cc([N+](=O)[O-])c(Sc2c(Cl)cncc2Cl)s1` [Example 22, 3,5-dichloro-4-[(5-methylsulfonyl-3-nitro-2-thienyl)sulfanyl]pyridine], which GI50 (U251) is on record?
The GI50 was 12.9 µM.

What about the GI50 (HT29) of the same compound?
The GI50 was 2.04 µM.

And the GI50 (OVCAR-3)?
Its GI50 is 1.82 µM.

What about the GI50 (PC-3) of the same compound?
The GI50 was 3.72 µM.

What about the GI50 (A549/ATCC) of the same compound?
Its GI50 is 13.8 µM.

What about the GI50 (HL-60(TB)) of the same compound?
Its GI50 is 1.41 µM.

And the GI50 (LOX IMVI)?
The GI50 was 10 µM.

What about the GI50 (MCF7) of the same compound?
The GI50 was 2.04 µM.

What about the GI50 (CAKI-1) of the same compound?
The GI50 was 1.82 µM.

What about the EC50 (USP7) of the same compound?
Its EC50 is 1 to 10 µM.

For `CS(=O)(=O)c1cc([N+](=O)[O-])c(Sc2ccc(Cl)cc2Cl)s1` [Example 23, 2-(2,4-dichlorophenyl)sulfanyl-5-methylsulfonyl-3-nitro-thiophene], which GI50 (U251) is on record?
The GI50 was 6.31 µM.

What about the GI50 (HT29) of the same compound?
Its GI50 is 1.78 µM.

What about the GI50 (OVCAR-3) of the same compound?
The GI50 was 1.62 µM.

And the GI50 (PC-3)?
The GI50 was 3.98 µM.

What about the GI50 (A549/ATCC) of the same compound?
The GI50 was 12.6 µM.

And the GI50 (HL-60(TB))?
The GI50 was 2.19 µM.

And the GI50 (LOX IMVI)?
Its GI50 is 1.74 µM.

And the GI50 (MCF7)?
Its GI50 is 1.7 µM.

What about the GI50 (CAKI-1) of the same compound?
Its GI50 is 2.24 µM.

And the EC50 (USP7)?
The EC50 was 1 to 10 µM.

Which EC50 at 72 h [1] does the source give for `CN1CCC(NC(=O)c2cc([N+](=O)[O-])c(Sc3c(Cl)cncc3Cl)s2)CC1` [Example 168, 5-((3,5-dichloropyridin-4-yl)thio)-N-(1-methylpiperidin-4-yl)-4-nitrothiophene-2-carboxamide] here?
The EC50 at 72 h was 6.52 µM.

What about the EC50 (USP7) of the same compound?
Its EC50 is no more than 1 µM.

And the “CI (mean ± SD) ED75” value (HCT-116 cells [2]; combination with Chlormethine)?
Its value is 0.70 ± 0.10.

What about the “CI (mean ± SD) ED90” value (HCT-116 cells [2]; combination with Chlormethine) of the same compound?
The value was 0.78 ± 0.13.

What about the “CI (mean ± SD) ED75” value (HCT-116 cells [2]; combination with Doxorubicin) of the same compound?
Its value is 0.73 ± 0.09.

What about the “CI (mean ± SD) ED90” value (HCT-116 cells [2]; combination with Doxorubicin) of the same compound?
The value was 0.81 ± 0.11.

What about the “CI (mean ± SD) ED75” value (HCT-116 cells [2]; combination with Etoposide) of the same compound?
The value was 0.54 ± 0.10.

What about the “CI (mean ± SD) ED90” value (HCT-116 cells [2]; combination with Etoposide) of the same compound?
The value was 0.59 ± 0.14.

With `CN(C)CCNc1ccc(NC(=O)c2cc([N+](=O)[O-])c(Sc3c(Cl)cncc3Cl)s2)cn1` [Example 238, 5-((3,5-dichloropyridin-4-yl)thio)-N-(6-((2-(dimethylamino)ethyl)amino)pyridin-3-yl)-4-nitrothiophene-2-carboxamide] as the compound, how does the EC50 at 72 h [1] read?
The EC50 at 72 h was 3.96 µM.

And the EC50 (USP7)?
Its EC50 is no more than 1 µM.

Which EC50 at 72 h [1] does the source give for `CC(=O)c1cc([N+](=O)[O-])c(Oc2ccc(Cl)cc2Cl)s1` [Example 271, 1-(5-(2,4-dichlorophenoxy)-4-nitrothiophen-2-yl)ethanone] here?
The EC50 at 72 h was 8.54 µM.

And the EC50 (USP7)?
Its EC50 is 1 to 10 µM.

With `CC(=O)c1cc([N+](=O)[O-])c(Sc2cccc(Cl)c2Cl)s1` [Example P5091, 1-[5-(2,3-dichlorophenyl)sulfanyl-4-nitro-2-thienyl]ethanone] as the compound, how does the GI50 (U251) read?
Its GI50 is 2.33 µM.

And the GI50 (HT29)?
The GI50 was 2.07 µM.

What about the GI50 (OVCAR-3) of the same compound?
Its GI50 is 1.65 µM.

What about the GI50 (PC-3) of the same compound?
The GI50 was 1.78 µM.

What about the GI50 (A549/ATCC) of the same compound?
Its GI50 is 16.3 µM.

And the GI50 (HL-60(TB))?
The GI50 was 1.82 µM.

What about the GI50 (LOX IMVI) of the same compound?
Its GI50 is 1.84 µM.

What about the GI50 (MCF7) of the same compound?
The GI50 was 1.94 µM.

What about the GI50 (CAKI-1) of the same compound?
The GI50 was 2.17 µM.

What about the EC50 at 72 h [1] of the same compound?
The EC50 at 72 h was 9.21 µM.

And the human plasmacytoma growth [3]?
The human plasmacytoma growth was “significantly inhibited human plasmacytoma growth”.

And the survival [3]?
Its survival is “significantly enhanced survival”.

And the “CI (mean ± SD) ED75” value (HCT-116 cells [2]; combination with Chlormethine)?
Its value is 0.67 ± 0.07.

What about the “CI (mean ± SD) ED90” value (HCT-116 cells [2]; combination with Chlormethine) of the same compound?
The value was 0.77 ± 0.05.

What about the “CI (mean ± SD) ED75” value (HCT-116 cells [2]; combination with Doxorubicin) of the same compound?
Its value is 0.73 ± 0.08.

What about the “CI (mean ± SD) ED90” value (HCT-116 cells [2]; combination with Doxorubicin) of the same compound?
Its value is 0.81 ± 0.02.

And the “CI (mean ± SD) ED75” value (HCT-116 cells [2]; combination with Etoposide)?
The value was 0.54 ± 0.04.

What about the “CI (mean ± SD) ED90” value (HCT-116 cells [2]; combination with Etoposide) of the same compound?
Its value is 0.63 ± 0.01.

Which EC50 (HCT-116 cells [4]) does the source give for “N-(5-(tert-butyl)isoxazol-3-yl)-5-((3,5-dichloropyridin-4-yl)thio)-4-nitrothiophene-2-carboxamide [Example 201]” here?
The EC50 was 12.9 µM.

— US8680139B2 (Progenra, priority 2009, dated 2014)
